Numbers after ± are expanded uncertainties.
Conditions: 101.33 kPa, Liquid, Vibrating tube method

Structure (SMILES) | mass density (298.15 K) [kg/m3] | mass density (308.15 K) [kg/m3] | mass density (318.15 K) [kg/m3] | mass density (328.15 K) [kg/m3] | mass density (338.15 K) [kg/m3] | mass density (348.15 K) [kg/m3]
CCCCCCn1cc[n+](C)c1.N#C[B-](C#N)(C#N)C#N [1-hexyl-3-methylimidazolium tetracyanoborate] | 983.03 ± 0.24 | – | – | – | – | –
CCCCO [butan-1-ol] | 798.06 ± 0.15 | – | – | – | – | –
CCCCCCCCCCn1cc[n+](C)c1.N#C[B-](C#N)(C#N)C#N [1-decyl-3-methyl-1H-imidazolium tetracyanoborate] | 955.57 ± 0.12 | – | – | – | – | –
CCCCCCCCCCCCCC[P+](CCCCCC)(CCCCCC)CCCCCC.N#C[B-](C#N)(C#N)C#N [trihexyltetradecylphosphonium tetracyanoborate] | 891.05 ± 0.23 | 884.97 ± 0.23 | 879.06 ± 0.23 | 873.16 ± 0.23 | 867.25 ± 0.24 | 861.36 ± 0.24

From the NIST ThermoML archive (doi:10.1016/j.jct.2012.04.017)
